From US20220024921A1, “1,3,4-OXADIAZOLONE COMPOUND AND PHARMACEUTICAL” (NIPPON SHINYAKU CO., LTD., priority 2018, published 2022) come the findings set out here.

Counter-ions that a name gives are not always drawn.

Assay [1] concerns the target T1, PIM1 serine/threonine kinase (Homo sapiens, UniProt P11309).
T1 construct: purchased Carna Bioscience, Inc
The experiment in a line: PIM1 serine/threonine kinase inhibitory effect. The class given is biochemical. Particulars: PIM1 serine/threonine kinase activity; ATP 40 μM; 30° C., 30 minutes. In outline: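 Recombinant PIM1 (0.15 μg/ml final) with 0.5 μM biotinylated substrate and 40 μM ATP in pH 7.0 HEPES/MgCl2 buffer, 30 min at 30° C. Compound range was 0.01–10000 nM final, n=2. HTRF detection with streptavidin-XL665 and anti-phospho antibody-cryptate, 1 h; IC50 from non-linear regression of the 665/620 ratio.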

For assay [2], the target named is PIM1 transgenic cells (Ba/F3) (Homo sapiens, UniProt P11309). Put plainly: Proliferation inhibitory effect on PIM1 transgenic cells. The class given is cell-based, mouse. Particulars: proliferation inhibition, 72 hours, Cell Counting Kit-8, read-out: PIM1 IC50. The procedure, abridged:
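Mouse Ba/F3 pro-B cells were retrovirally transduced with human PIM1 so that their proliferation depends on PIM1. Cells were treated with compound at 1–10000 nM final for 72 h, then read by CCK-8 (OD450−OD650). Inhibition was set against DMSO (0%) and no-cell blank (100%), and IC50 was obtained by two-parameter logistic regression.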

T1 sequence (P11309 whole entry): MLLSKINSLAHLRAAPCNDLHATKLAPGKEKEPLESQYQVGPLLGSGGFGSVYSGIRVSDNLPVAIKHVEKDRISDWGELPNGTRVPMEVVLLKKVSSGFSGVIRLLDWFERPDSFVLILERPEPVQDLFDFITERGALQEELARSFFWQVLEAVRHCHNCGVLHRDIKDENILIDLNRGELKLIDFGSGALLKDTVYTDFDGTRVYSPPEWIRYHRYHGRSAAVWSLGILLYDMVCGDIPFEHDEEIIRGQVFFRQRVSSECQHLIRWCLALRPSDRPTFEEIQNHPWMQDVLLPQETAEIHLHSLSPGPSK
Chain of PIM1 transgenic cells (Ba/F3) (P11309 whole entry, stated change not applied): as the sequence (P11309 whole entry) above

`NCCC1CCN(c2cc(-c3n[nH]c(=O)o3)ccc2C(F)(F)F)CC1` [Example 10, 5-{3-[4-(2-aminoethyl)piperidin-1-yl]-4-(trifluoromethyl)phenyl}-1,3,4-oxadiazol-2(3H)-one hydrochloride]: in assay [1], the IC50 (in general, the concentration that gives 50% inhibition) came out at 0.0066 µM. The GI50 in assay [2] was 0.63 µM.
The like results for `N[C@H]1CC[C@@H](COc2cc(-c3n[nH]c(=O)o3)ccc2Cl)CC1` [Example 243, 5-(3-{[(1s,4s)-4-aminocyclohexyl]methoxy}-4-chlorophenyl)-1,3,4-oxadiazol-2(3H)-one] were, in that order, 0.0041 µM and 0.15 µM.
The corresponding values for `N[C@H]1CC[C@H](Nc2cc(-c3n[nH]c(=O)o3)ccc2Cl)CC1` [Example 32, 5-(3-{[(1r,4r)-4-aminocyclohexyl]amino}-4-chlorophenyl)-1,3,4-oxadiazol-2(3H)-one] are 0.0057 µM and 0.41 µM.
`C[C@H](Nc1cc(-c2n[nH]c(=O)o2)ccc1Br)[C@H]1CC[C@H](N)CC1` [Example 154, 5-[3-({(1S)-1-[(1r,4S)-4-aminocyclohexyl]ethyl}amino)-4-bromophenyl]-1,3,4-oxadiazol-2(3H)-one hydrochloride] had an IC50 in assay [1] of 0.0024 µM. The GI50 in assay [2] was 0.035 µM.
The corresponding values for `C[C@H](Nc1cc(-c2n[nH]c(=O)o2)cc(F)c1OC(F)(F)F)[C@H]1CC[C@H](N)CC1` [Example 170, 5-[3-({(1S)-1-[(1r,4S)-4-aminocyclohexyl]ethyl}amino)-5-fluoro-4-(trifluoromethoxy)phenyl]-1,3,4-oxadiazol-2(3H)-one hydrochloride] are 0.0018 µM and 0.017 µM.
The like results for `CN[C@H]1CC[C@H]([C@H](C)Nc2cc(-c3n[nH]c(=O)o3)cc(F)c2C(F)(F)F)CC1` [Example 190, 5-[3-fluoro-5-({(1S)-1-[(1r,4S)-4-(methylamino)cyclohexyl]ethyl}amino)-4-(trifluoromethyl)phenyl]-1,3,4-oxadiazol-2(3H)-one hydrochloride] were, in that order, 0.0019 µM and 0.041 µM.
For the compound `N[C@H]1CC[C@H](CNc2cc(-c3n[nH]c(=O)o3)ccc2-c2ccccc2)CC1` [Example 71, 5-[2-({[(1r,4r)-4-aminocyclohexyl]methyl}amino)[1,1′-biphenyl]-4-yl]-1,3,4-oxadiazol-2(3H)-one hydrochloride], in assay [1], half-maximal inhibition (IC50) required 0.14 µM. For the same compound, the GI50 in assay [2] stood at 4.2 µM.
The corresponding values for `C[C@H](Nc1cc(-c2n[nH]c(=O)o2)cc(Br)c1Cl)[C@H]1CC[C@H](N)CC1` [Example 171, 5-[3-({(1S)-1-[(1r,4S)-4-aminocyclohexyl]ethyl}amino)-5-bromo-4-chlorophenyl]-1,3,4-oxadiazol-2(3H)-one dihydrochloride] are 0.002 µM and 0.028 µM.
Consider `O=c1[nH]nc(-c2cc(F)c(C(F)(F)F)c(NCC3(F)CCNCC3)c2)o1` [Example 129, 5-[3-fluoro-5-{[(4-fluoropiperidin-4-yl)methyl]amino}-4-(trifluoromethyl)phenyl]-1,3,4-oxadiazol-2(3H)-one hydrochloride], for which, in assay [1], the IC50 is 0.0082 µM. Moreover, the GI50 in assay [2] is 0.36 µM.
The like results for `Cc1c(F)cc(-c2n[nH]c(=O)o2)cc1N[C@@H](C)C1CCNCC1` [Example 99, 5-(3-fluoro-4-methyl-5-{[(1S)-1-(piperidin-4-yl)ethyl]amino}phenyl)-1,3,4-oxadiazol-2(3H)-one dihydrochloride] were, in that order, 0.0039 µM and 0.097 µM.
Consider `C[C@@H]([C@H]1CC[C@H](N)CC1)N1CCOc2c(F)cc(-c3n[nH]c(=O)o3)cc21` [Example 249, 5-(4-{(1S)-1-[(1r,4S)-4-aminocyclohexyl]ethyl}-8-fluoro-3,4-dihydro-2H-1,4-benzoxazin-6-yl)-1,3,4-oxadiazol-2(3H)-one], for which the IC50 in assay [1] stood at 0.0042 µM. Moreover, the GI50 in assay [2] was 0.11 µM.
The corresponding values for `O=c1[nH]nc(-c2ccc(C(F)(F)F)c(NCCC3CCNCC3)c2)o1` [Example 64, 5-[3-{[2-(piperidin-4-yl)ethyl]amino}-4-(trifluoromethyl)phenyl]-1,3,4-oxadiazol-2(3H)-one hydrochloride] are 0.009 µM and 1.3 µM.
The corresponding values for `C[C@@H]1CN([C@@H](C)C2CCNCC2)c2cc(-c3n[nH]c(=O)o3)cc(F)c2O1` [Example 250, 5-{(2R)-8-fluoro-2-methyl-4-[(1S)-1-(piperidin-4-yl)ethyl]-3,4-dihydro-2H-1,4-benzoxazin-6-yl}-1,3,4-oxadiazol-2(3H)-one] are 0.0057 µM and 0.19 µM.
The like results for `CC1CC(CNc2cc(-c3n[nH]c(=O)o3)ccc2C(F)(F)F)CCN1` (stereo not drawn) [Example 143, 5-[3-{[(2-methylpiperidin-4-yl)methyl]amino}-4-(trifluoromethyl)phenyl]-1,3,4-oxadiazol-2(3H)-one hydrochloride] were, in that order, 0.014 µM and 0.61 µM.
`C[C@H](Nc1cc(-c2n[nH]c(=O)o2)ccc1C(F)(F)F)C1CC2(CNC2)C1` [Example 149, 5-[3-{[(1S)-1-(2-azaspiro[3.3]heptan-6-yl)ethyl]amino}-4-(trifluoromethyl)phenyl]-1,3,4-oxadiazol-2(3H)-one trifluoroacetate] showed an IC50 in assay [1] of 0.0091 µM. Besides, in assay [2], the GI50 is 0.38 µM.
Compound `O=c1[nH]nc(-c2ccc(C(F)(F)F)c(NC[C@@H]3C[C@H]4CC[C@@H](C3)N4)c2)o1` [Example 135, 5-[3-({[(1R,3s,5S)-8-azabicyclo[3.2.1]octan-3-yl]methyl}amino)-4-(trifluoromethyl)phenyl]-1,3,4-oxadiazol-2(3H)-one hydrochloride] registered an IC50 in assay [1] of 0.029 µM. Moreover, the GI50 in assay [2] amounted to 3.5 µM.
The like results for `C[C@@H](C1CCNCC1)N1CCOc2c(F)cc(-c3n[nH]c(=O)o3)cc21` [Example 248, 5-{8-fluoro-4-[(1S)-1-(piperidin-4-yl)ethyl]-3,4-dihydro-2H-1,4-benzoxazin-6-yl}-1,3,4-oxadiazol-2(3H)-one] were, in that order, 0.01 µM and 0.25 µM.
The corresponding values for `N[C@H]1CC[C@@H](Nc2cc(-c3n[nH]c(=O)o3)ccc2Cl)CC1` [Example 33, 5-(3-{[(1s,4s)-4-aminocyclohexyl]amino}-4-chlorophenyl)-1,3,4-oxadiazol-2(3H)-one hydrochloride] are 0.0062 µM and 0.73 µM.
Consider `C[C@H](Nc1cc(-c2n[nH]c(=O)o2)ccc1C(F)(F)F)[C@H]1CC[C@@H](N)C1` [Example 199, 5-[3-({(1S)-1-[(1S,3R)-3-aminocyclopentyl]ethyl}amino)-4-(trifluoromethyl)phenyl]-1,3,4-oxadiazol-2(3H)-one hydrochloride], for which, in assay [1], the IC50 is 0.0039 µM. Further, the GI50 in assay [2] stood at 0.11 µM.
The like results for `O=c1[nH]nc(-c2ccc(C(F)(F)F)c(NCC3(F)CCNCC3)c2)o1` [Example 108, 5-[3-{[(4-fluoropiperidin-4-yl)methyl]amino}-4-(trifluoromethyl)phenyl]-1,3,4-oxadiazol-2(3H)-one hydrochloride] were, in that order, 0.019 µM and 0.27 µM.
The like results for `C=C(C)c1c(F)cc(-c2n[nH]c(=O)o2)cc1N[C@@H](C)[C@H]1CC[C@H](N)CC1` [Example 232, 5-[3-({(1S)-1-[(1r,4S)-4-aminocyclohexyl]ethyl}amino)-5-fluoro-4-(prop-1-en-2-yl)phenyl]-1,3,4-oxadiazol-2(3H)-one hydrochloride] were, in that order, 0.002 µM and 0.028 µM.
In assay [1], `N[C@H]1CC[C@H](Nc2cc(-c3n[nH]c(=O)o3)ccc2OC(F)(F)F)CC1` [Example 38, 5-[3-{[(1r,4r)-4-aminocyclohexyl]amino}-4-(trifluoromethoxy)phenyl]-1,3,4-oxadiazol-2(3H)-one hydrochloride] had an IC50 of 0.02 µM. The GI50 in assay [2] came to 0.55 µM.
The corresponding values for `C[C@H](Nc1cc(-c2n[nH]c(=O)o2)ccc1C(F)(F)F)[C@H]1CC[C@H](NCC(F)(F)F)CC1` [Example 197, 5-[3-{[(1S)-1-{(1r,4S)-4-[(2,2,2-trifluoroethyl)amino]cyclohexyl}ethyl]amino}-4-(trifluoromethyl)phenyl]-1,3,4-oxadiazol-2(3H)-one hydrochloride] are 0.14 µM and 1.9 µM.
The corresponding values for `C[C@H](Nc1cc(-c2n[nH]c(=O)o2)ccc1C(F)(F)F)[C@H]1[C@@H]2CC[C@H]1CNC2` [Example 156, 5-[3-({(1S)-1-[(1R,5S,8s)-3-azabicyclo[3.2.1]octan-8-yl]ethyl}amino)-4-(trifluoromethyl)phenyl]-1,3,4-oxadiazol-2(3H)-one hydrochloride] are 0.014 µM and 0.16 µM.
The like results for `C[C@H](Nc1cc(-c2n[nH]c(=O)o2)cc(F)c1Br)C1CCNCC1` [Example 83, 5-(4-bromo-3-fluoro-5-{[(1S)-1-(piperidin-4-yl)ethyl]amino}phenyl)-1,3,4-oxadiazol-2(3H)-one hydrochloride] were, in that order, 0.001 µM and 0.075 µM.
As to `O=c1[nH]nc(-c2ccc(Br)c(NCC3CCNCC3)c2)o1` [Example 50, 5-(4-bromo-3-{[(piperidin-4-yl)methyl]amino}phenyl)-1,3,4-oxadiazol-2(3H)-one hydrochloride], the IC50 in assay [1] worked out at 0.0037 µM. Besides, the GI50 in assay [2] turned out to be 1.8 µM.
In assay [1], `CC(N)[C@H]1CC[C@H](Nc2cc(-c3n[nH]c(=O)o3)ccc2C(F)(F)F)CC1` (stereo partly drawn) [Example 39, 5-[3-{[(1r,4r)-4-(1-aminoethyl)cyclohexyl]amino}-4-(trifluoromethyl)phenyl]-1,3,4-oxadiazol-2(3H)-one hydrochloride] showed an IC50 of 0.0022 µM. Also, the GI50 in assay [2] was found to be 0.1 µM.
